The target in the assay is T1, human amylin receptor (Homo sapiens, UniProt O60896+P30988).
T1 construct: host or cells: CHO-K1/Ga15/AMY3 cells, further stably transfected with a CRE-luciferase plasmid
T1 sequence (P30988 25-474): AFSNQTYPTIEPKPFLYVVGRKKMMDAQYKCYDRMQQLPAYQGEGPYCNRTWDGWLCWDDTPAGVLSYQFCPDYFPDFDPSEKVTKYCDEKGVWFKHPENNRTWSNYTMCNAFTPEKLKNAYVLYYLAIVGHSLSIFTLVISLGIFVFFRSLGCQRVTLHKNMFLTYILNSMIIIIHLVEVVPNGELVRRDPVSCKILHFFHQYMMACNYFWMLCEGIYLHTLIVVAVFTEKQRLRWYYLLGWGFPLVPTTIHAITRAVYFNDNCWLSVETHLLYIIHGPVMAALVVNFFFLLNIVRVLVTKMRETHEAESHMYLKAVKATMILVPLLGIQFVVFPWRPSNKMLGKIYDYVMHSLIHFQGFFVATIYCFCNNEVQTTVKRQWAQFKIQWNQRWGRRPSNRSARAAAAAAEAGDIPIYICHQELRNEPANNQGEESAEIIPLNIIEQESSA
T1 sequence (O60896 24-148 partner): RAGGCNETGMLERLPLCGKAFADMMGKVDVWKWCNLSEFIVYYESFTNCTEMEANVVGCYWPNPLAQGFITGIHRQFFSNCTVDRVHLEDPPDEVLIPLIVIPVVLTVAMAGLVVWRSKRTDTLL
Kind of assay: Luciferase assay of amylin derivatives in amylin receptor/CRE-luc CHO cell line. In kind it is cell-based. The conditions noted are these: CHO-K1/Ga15/AMY3 CRE-luc cells, 24 hours incubation, F12 medium containing 10% FBS; read-out: EC50.

Numbered stars: 1 amine (or outer) side, 2 acyl side, 3 side chain; on linkers, the order of the positions; unused ones are H or OH. Bridge positions count the residues as written; N and C are the ends. Square brackets hold non-standard residues; d marks the D form. Side chains are listed from the residue outwards. Peptide text beside a SMILES is read from it. * marks the point of attachment. C20 diacid = O=C(O)CCCCCCCCCCCCCCCCCCC(=O)*; γGlu = O=C(O)[C@H](CCC(=O)[*:2])N[*:1]; βAsp = O=C(O)[C@H](CC(=O)[*:2])N[*:1]; Hyp = O=C(O)[C@@H]1C[C@@H](O)CN1; AEEA = NCCOCCOCC(=O)O

In general, EC50 refers to the concentration giving half of the maximal effect.

Method: The experiment was intended to detect the activity or efficacy of the amylin derivatives on a human amylin receptor in vitro by luciferase assay.
50 μL of growth medium (F12 medium containing 10% FBS) was added into each well of a white 96-well plate, and the stably transfected amylin/CRE-lue CHO cells were inoculated into the white 96-well plate at a density of about 20,000 cells/well for activity determination.

Turning to `CC[C@H](C)[C@H](NC(=O)[C@@H]1CCCN1C(=O)CNC(=O)[C@H](CC(C)C)NC(=O)[C@H](CC(N)=O)NC(=O)[C@H](CC(N)=O)NC(=O)[C@H](CO)NC(=O)[C@H](CO)NC(=O)[C@H](Cc1c[nH]cn1)NC(=O)[C@H](CCCNC(=N)N)NC(=O)[C@H](CC(C)C)NC(=O)[C@H](Cc1ccccc1)NC(=O)[C@H](CC(=O)O)NC(=O)[C@H](C)NC(=O)[C@H](CC(C)C)NC(=O)[C@H](CCCNC(=N)N)NC(=O)[C@H](CCC(N)=O)NC(=O)[C@@H](NC(=O)[C@H](C)NC(=O)[C@@H]1CSSC[C@H](NC(=O)[C@H](CCCCN)NC(=O)CC[C@H](NC(=O)CCCCCCCCCCCCCCCCCCC(=O)O)C(=O)O)C(=O)N[C@@H](CC(N)=O)C(=O)N[C@@H]([C@@H](C)O)C(=O)N[C@@H](C)C(=O)N[C@@H]([C@@H](C)O)C(=O)N1)[C@@H](C)O)C(=O)N[C@@H](CC(C)C)C(=O)N1CCC[C@H]1C(=O)N1CCC[C@H]1C(=O)N[C@H](C(=O)N[C@@H](CC(N)=O)C(=O)N[C@H](C(=O)NCC(=O)N[C@@H](CO)C(=O)N[C@@H](CC(N)=O)C(=O)N[C@H](C(=O)N1C[C@H](O)C[C@H]1C(N)=O)[C@@H](C)O)C(C)C)[C@@H](C)O` [PD069] ({C20 diacid-γGlu}-KCNTATCATQRLADFLRHSSNNLGPILPPTNVGSNT[Hyp]-NH2; disulfide 2-7), the concentration for a half-maximal effect (EC50) was determined as 0.039 nM.

Regarding `CC[C@H](C)[C@H](NC(=O)[C@@H]1CCCN1C(=O)[C@H](CCCCN)NC(=O)[C@H](CC(C)C)NC(=O)[C@H](CC(N)=O)NC(=O)[C@H](CC(N)=O)NC(=O)[C@H](CO)NC(=O)[C@H](CO)NC(=O)[C@H](Cc1c[nH]cn1)NC(=O)[C@H](CCCNC(=N)N)NC(=O)[C@H](CC(C)C)NC(=O)[C@H](Cc1ccccc1)NC(=O)[C@H](CC(=O)O)NC(=O)[C@H](C)NC(=O)[C@H](CC(C)C)NC(=O)[C@H](CCCNC(=N)N)NC(=O)[C@H](CCC(N)=O)NC(=O)[C@@H](NC(=O)[C@H](C)NC(=O)[C@@H]1CSSC[C@H](NC(=O)[C@H](CCCCN)NC(=O)COCCOCCNC(=O)COCCOCCNC(=O)C[C@H](NC(=O)CCCCCCCCCCCCCCCCCCC(=O)O)C(=O)O)C(=O)N[C@@H](CC(N)=O)C(=O)N[C@@H]([C@@H](C)O)C(=O)N[C@@H](C)C(=O)N[C@@H]([C@@H](C)O)C(=O)N1)[C@@H](C)O)C(=O)N[C@@H](CC(C)C)C(=O)N1CCC[C@H]1C(=O)N1CCC[C@H]1C(=O)N[C@H](C(=O)N[C@@H](CC(N)=O)C(=O)N[C@H](C(=O)NCC(=O)N[C@@H](CO)C(=O)N[C@@H](CC(N)=O)C(=O)N[C@H](C(=O)N1CCC[C@H]1C(N)=O)[C@@H](C)O)C(C)C)[C@@H](C)O` [PD195] ({C20 diacid-βAsp-AEEA-AEEA}-KCNTATCATQRLADFLRHSSNNLKPILPPTNVGSNTP-NH2; disulfide 2-7 (inferred)), the EC50 is 0.025 nM.

For the molecule `CC[C@H](C)[C@H](NC(=O)[C@@H]1CCCN1C(=O)CNC(=O)[C@H](CC(C)C)NC(=O)[C@H](CCCCNC(=O)COCCOCCNC(=O)CC[C@H](NC(=O)CCCCCCCCCCCCCCCCCCC(=O)O)C(=O)O)NC(=O)[C@H](CC(N)=O)NC(=O)[C@H](CO)NC(=O)[C@H](CO)NC(=O)[C@H](Cc1c[nH]cn1)NC(=O)[C@H](CCCNC(=N)N)NC(=O)[C@H](CC(C)C)NC(=O)[C@H](Cc1ccccc1)NC(=O)[C@H](CC(=O)O)NC(=O)[C@H](C)NC(=O)[C@H](CC(C)C)NC(=O)[C@H](CCCNC(=N)N)NC(=O)[C@H](CCC(N)=O)NC(=O)[C@@H](NC(=O)[C@H](C)NC(=O)[C@@H]1CSSC[C@H](NC(=O)[C@@H](N)CCCNC(=N)N)C(=O)N[C@@H](CC(N)=O)C(=O)N[C@@H]([C@@H](C)O)C(=O)N[C@@H](C)C(=O)N[C@@H]([C@@H](C)O)C(=O)N1)[C@@H](C)O)C(=O)N[C@@H](CC(C)C)C(=O)N1CCC[C@H]1C(=O)N1CCC[C@H]1C(=O)N[C@H](C(=O)N[C@@H](CC(N)=O)C(=O)N[C@H](C(=O)NCC(=O)N[C@@H](CO)C(=O)N[C@@H](CC(N)=O)C(=O)N[C@H](C(=O)N1C[C@H](O)C[C@H]1C(N)=O)[C@@H](C)O)C(C)C)[C@@H](C)O` [PD112] (H-RCNTATCATQRLADFLRHSSNK([AEEA-γGlu-C20 diacid])LGPILPPTNVGSNT[Hyp]-NH2; disulfide 2-7), the EC50 came to 0.03 nM.

For `CC[C@H](C)[C@H](NC(=O)[C@@H]1CCCN1C(=O)[C@H](CCCCN)NC(=O)[C@H](CC(C)C)NC(=O)[C@H](CC(N)=O)NC(=O)[C@H](CC(N)=O)NC(=O)[C@H](CO)NC(=O)[C@H](CO)NC(=O)[C@H](Cc1c[nH]cn1)NC(=O)[C@H](CCCNC(=N)N)NC(=O)[C@H](CC(C)C)NC(=O)[C@H](Cc1ccccc1)NC(=O)[C@H](CC(=O)O)NC(=O)[C@H](C)NC(=O)[C@H](CC(C)C)NC(=O)[C@H](CCCNC(=N)N)NC(=O)[C@H](CCC(N)=O)NC(=O)[C@@H](NC(=O)[C@H](C)NC(=O)[C@@H]1CSSC[C@H](NC(=O)[C@H](CCCCN)NC(=O)CC[C@H](NC(=O)COCCOCCNC(=O)COCCOCCNC(=O)CCCCCCCCCCCCCCCCCCC(=O)O)C(=O)O)C(=O)N[C@@H](CC(N)=O)C(=O)N[C@@H]([C@@H](C)O)C(=O)N[C@@H](C)C(=O)N[C@@H]([C@@H](C)O)C(=O)N1)[C@@H](C)O)C(=O)N[C@@H](CC(C)C)C(=O)N1CCC[C@H]1C(=O)N1CCC[C@H]1C(=O)N[C@H](C(=O)N[C@@H](CC(N)=O)C(=O)N[C@H](C(=O)NCC(=O)N[C@@H](CO)C(=O)N[C@@H](CC(N)=O)C(=O)N[C@H](C(=O)N1C[C@H](O)C[C@H]1C(N)=O)[C@@H](C)O)C(C)C)[C@@H](C)O` [PD176] ({C20 diacid-AEEA-AEEA-γGlu}-KCNTATCATQRLADFLRHSSNNLKPILPPTNVGSNT[Hyp]-NH2; disulfide 2-7), the EC50 is 0.029 nM.

As for `CC[C@H](C)[C@H](NC(=O)[C@@H]1CCCN1C(=O)CNC(=O)[C@H](CCCCNC(=O)COCCOCCNC(=O)COCCOCCNC(=O)CC[C@H](NC(=O)CCCCCCCCCCCCCCCCCCC(=O)O)C(=O)O)NC(=O)[C@H](CC(N)=O)NC(=O)[C@H](CC(N)=O)NC(=O)[C@H](CO)NC(=O)[C@H](CO)NC(=O)[C@H](Cc1c[nH]cn1)NC(=O)[C@H](CCCNC(=N)N)NC(=O)[C@H](CC(C)C)NC(=O)[C@H](Cc1ccccc1)NC(=O)[C@H](CC(=O)O)NC(=O)[C@H](C)NC(=O)[C@H](CC(C)C)NC(=O)[C@H](CCCNC(=N)N)NC(=O)[C@H](CCC(N)=O)NC(=O)[C@@H](NC(=O)[C@H](C)NC(=O)[C@@H]1CSSC[C@H](NC(=O)[C@@H](N)CCCNC(=N)N)C(=O)N[C@@H](CC(N)=O)C(=O)N[C@@H]([C@@H](C)O)C(=O)N[C@@H](C)C(=O)N[C@@H]([C@@H](C)O)C(=O)N1)[C@@H](C)O)C(=O)N[C@@H](CC(C)C)C(=O)N1CCC[C@H]1C(=O)N1CCC[C@H]1C(=O)N[C@H](C(=O)N[C@@H](CC(N)=O)C(=O)N[C@H](C(=O)NCC(=O)N[C@@H](CO)C(=O)N[C@@H](CC(N)=O)C(=O)N[C@H](C(=O)N1C[C@H](O)C[C@H]1C(N)=O)[C@@H](C)O)C(C)C)[C@@H](C)O` [PD083] (H-RCNTATCATQRLADFLRHSSNNK([AEEA-AEEA-γGlu-C20 diacid])GPILPPTNVGSNT[Hyp]-NH2; disulfide 2-7), the EC50 was 0.037 nM.

Values taken from patent publication US20260166128A1, “HUMAN AMYLIN ANALOG, AND DERIVATIVE THEREOF AND USE THEREOF” (priority 2022, published 2026).
